# Assays:
# Assay in all cases: biochemical
# Set-up in all cases: kinase selectivity panel, activity as per cent of control, single concentration in duplicate
# Conditions in all cases: read-out: % of control remaining
# PKCβII(h) = target: T1, PKCβII(h) (Homo sapiens, UniProt P05771)
# T1 construct: gene PRKCB; isoform betaII
# Protocol: (§1) We next assessed selectivity of MS67 against 22 protein methyltransferases (table S2) and a broad panel of common drug targets including 45 kinases (table S3) and 44 G protein–coupled receptors (GPCR), ion channels, and transporters (table S4). […] We subsequently determined that MS67 had moderate binding affinity (Ki = 1.0 ± 0.8 μM) to Sigma 2 receptor (fig. S10).
# FGFR3(h) = FGFR3(h) (Homo sapiens, UniProt P22607)
# Protocol: as §1
# EphA2(h) = EphA2(h) (Homo sapiens, UniProt P29317)
# Sequence of EphA2(h) (P29317 whole entry): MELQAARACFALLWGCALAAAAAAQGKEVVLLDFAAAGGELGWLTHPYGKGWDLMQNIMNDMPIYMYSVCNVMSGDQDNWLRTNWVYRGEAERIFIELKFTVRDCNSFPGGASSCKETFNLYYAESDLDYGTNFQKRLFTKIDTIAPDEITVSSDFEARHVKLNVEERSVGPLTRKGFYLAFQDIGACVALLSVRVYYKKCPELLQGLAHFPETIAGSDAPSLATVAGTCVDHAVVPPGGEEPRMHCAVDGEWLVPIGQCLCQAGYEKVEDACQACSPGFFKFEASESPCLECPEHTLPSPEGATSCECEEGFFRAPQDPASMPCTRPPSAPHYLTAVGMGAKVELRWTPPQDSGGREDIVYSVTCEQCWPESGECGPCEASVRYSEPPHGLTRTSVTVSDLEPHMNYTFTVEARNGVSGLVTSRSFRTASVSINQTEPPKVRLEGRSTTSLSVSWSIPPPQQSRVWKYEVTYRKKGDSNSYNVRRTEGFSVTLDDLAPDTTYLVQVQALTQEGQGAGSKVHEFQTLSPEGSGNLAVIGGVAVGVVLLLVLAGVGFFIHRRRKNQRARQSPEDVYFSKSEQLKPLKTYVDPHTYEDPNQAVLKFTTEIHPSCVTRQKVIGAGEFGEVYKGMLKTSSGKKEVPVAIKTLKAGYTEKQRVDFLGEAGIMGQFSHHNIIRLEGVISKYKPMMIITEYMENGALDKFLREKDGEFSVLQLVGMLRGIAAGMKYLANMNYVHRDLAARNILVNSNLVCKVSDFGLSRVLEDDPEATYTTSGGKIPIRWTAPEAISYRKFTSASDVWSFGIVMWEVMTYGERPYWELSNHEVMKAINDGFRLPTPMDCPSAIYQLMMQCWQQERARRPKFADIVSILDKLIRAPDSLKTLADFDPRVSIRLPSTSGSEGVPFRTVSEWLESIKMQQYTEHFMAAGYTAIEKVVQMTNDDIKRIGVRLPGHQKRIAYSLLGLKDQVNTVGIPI
# Protocol: as §1
# CDK1/cyclinB(h) = CDK1/cyclinB(h) (Homo sapiens, UniProt P06493)
# Sequence of CDK1/cyclinB(h) (P06493 whole entry): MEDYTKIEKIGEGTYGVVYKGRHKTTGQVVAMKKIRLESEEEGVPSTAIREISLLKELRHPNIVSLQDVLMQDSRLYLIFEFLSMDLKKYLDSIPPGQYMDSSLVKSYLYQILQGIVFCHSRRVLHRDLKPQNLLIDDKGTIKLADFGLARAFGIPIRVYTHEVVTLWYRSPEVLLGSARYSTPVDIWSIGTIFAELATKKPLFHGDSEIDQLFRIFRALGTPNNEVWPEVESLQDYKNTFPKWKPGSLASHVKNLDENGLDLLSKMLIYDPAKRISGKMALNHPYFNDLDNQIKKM
# Sequence of CDK1/cyclinB(h) (P14635 whole entry partner): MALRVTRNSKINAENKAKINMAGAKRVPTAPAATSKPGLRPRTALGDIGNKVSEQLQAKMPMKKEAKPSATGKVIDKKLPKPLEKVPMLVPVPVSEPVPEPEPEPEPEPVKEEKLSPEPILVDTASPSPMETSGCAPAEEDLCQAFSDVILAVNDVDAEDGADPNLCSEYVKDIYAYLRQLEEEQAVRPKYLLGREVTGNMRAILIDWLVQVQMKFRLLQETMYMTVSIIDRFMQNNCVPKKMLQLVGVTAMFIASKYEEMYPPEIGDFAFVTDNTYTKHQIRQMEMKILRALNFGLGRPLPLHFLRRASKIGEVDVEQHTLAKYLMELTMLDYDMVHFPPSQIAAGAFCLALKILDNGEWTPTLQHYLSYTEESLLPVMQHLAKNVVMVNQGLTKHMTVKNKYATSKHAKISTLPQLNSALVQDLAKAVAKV
# Protocol: as §1
# c-RAF(h) = target: T2, c-RAF(h) (Homo sapiens, UniProt P04049)
# T2 construct: gene RAF1
# Protocol: as §1
# cSRC(h) = target: T3, cSRC(h) (Homo sapiens, UniProt P12931)
# T3 construct: gene SRC
# Protocol: as §1
# GSK3β(h) = target: T4, GSK3β(h) (Homo sapiens, UniProt P49841)
# T4 construct: gene GSK3B
# Protocol: as §1
# IR(h) = target: T5, IR(h) (Homo sapiens, UniProt P06213)
# T5 construct: gene INSR
# Protocol: as §1
# Pim-2(h) = target: T6, Pim-2(h) (Homo sapiens, UniProt Q9P1W9)
# T6 construct: gene PIM2
# Protocol: as §1
# SIK(h) = target: T7, SIK(h) (Homo sapiens, UniProt P57059)
# T7 construct: gene SIK1
# T7 sequence (P57059 whole entry): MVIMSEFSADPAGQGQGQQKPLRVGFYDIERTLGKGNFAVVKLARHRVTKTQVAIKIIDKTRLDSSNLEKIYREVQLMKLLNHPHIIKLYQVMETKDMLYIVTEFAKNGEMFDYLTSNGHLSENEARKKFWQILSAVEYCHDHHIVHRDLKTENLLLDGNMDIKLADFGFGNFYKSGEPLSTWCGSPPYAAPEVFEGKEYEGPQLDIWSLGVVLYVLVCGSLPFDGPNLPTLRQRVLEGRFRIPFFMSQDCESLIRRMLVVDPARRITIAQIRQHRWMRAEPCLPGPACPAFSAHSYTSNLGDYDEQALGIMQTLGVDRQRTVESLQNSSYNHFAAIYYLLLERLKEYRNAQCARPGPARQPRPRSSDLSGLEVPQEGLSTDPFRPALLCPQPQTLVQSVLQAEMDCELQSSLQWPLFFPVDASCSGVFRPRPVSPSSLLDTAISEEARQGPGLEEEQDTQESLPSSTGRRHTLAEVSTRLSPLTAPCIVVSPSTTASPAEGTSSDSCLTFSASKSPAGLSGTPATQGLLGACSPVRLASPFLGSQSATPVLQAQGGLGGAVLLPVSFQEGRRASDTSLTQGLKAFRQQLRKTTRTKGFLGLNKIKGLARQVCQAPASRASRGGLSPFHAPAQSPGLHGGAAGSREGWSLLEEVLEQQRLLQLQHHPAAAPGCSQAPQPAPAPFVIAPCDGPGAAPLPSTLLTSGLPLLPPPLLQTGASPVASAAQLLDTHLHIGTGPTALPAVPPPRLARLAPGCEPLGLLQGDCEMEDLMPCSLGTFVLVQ
# Protocol: as §1
# FGFR2(h) = FGFR2(h) (Homo sapiens, UniProt P21802)
# Sequence of FGFR2(h) (P21802 whole entry): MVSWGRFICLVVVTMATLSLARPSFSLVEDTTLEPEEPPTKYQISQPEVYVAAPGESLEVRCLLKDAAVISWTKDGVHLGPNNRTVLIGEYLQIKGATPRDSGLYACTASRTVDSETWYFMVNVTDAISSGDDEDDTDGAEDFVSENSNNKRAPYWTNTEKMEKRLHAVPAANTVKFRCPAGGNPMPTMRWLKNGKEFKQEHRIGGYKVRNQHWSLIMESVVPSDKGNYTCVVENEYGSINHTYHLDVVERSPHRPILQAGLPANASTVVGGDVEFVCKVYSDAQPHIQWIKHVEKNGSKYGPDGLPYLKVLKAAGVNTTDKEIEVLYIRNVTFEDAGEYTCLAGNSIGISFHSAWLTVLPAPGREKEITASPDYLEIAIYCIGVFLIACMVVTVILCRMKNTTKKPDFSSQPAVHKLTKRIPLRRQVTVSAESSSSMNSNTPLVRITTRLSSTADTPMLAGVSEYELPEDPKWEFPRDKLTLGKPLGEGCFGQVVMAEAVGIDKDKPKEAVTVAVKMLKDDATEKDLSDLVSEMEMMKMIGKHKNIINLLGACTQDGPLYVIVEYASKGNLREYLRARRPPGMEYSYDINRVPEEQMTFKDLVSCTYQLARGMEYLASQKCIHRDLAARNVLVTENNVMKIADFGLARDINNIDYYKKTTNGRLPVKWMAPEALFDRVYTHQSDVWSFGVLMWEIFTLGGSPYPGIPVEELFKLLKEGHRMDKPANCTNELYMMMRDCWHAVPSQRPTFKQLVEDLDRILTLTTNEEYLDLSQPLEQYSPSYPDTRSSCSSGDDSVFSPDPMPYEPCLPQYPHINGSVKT
# Protocol: as §1
# EphB4(h) = EphB4(h) (Homo sapiens, UniProt P54760)
# Sequence of EphB4(h) (P54760 whole entry): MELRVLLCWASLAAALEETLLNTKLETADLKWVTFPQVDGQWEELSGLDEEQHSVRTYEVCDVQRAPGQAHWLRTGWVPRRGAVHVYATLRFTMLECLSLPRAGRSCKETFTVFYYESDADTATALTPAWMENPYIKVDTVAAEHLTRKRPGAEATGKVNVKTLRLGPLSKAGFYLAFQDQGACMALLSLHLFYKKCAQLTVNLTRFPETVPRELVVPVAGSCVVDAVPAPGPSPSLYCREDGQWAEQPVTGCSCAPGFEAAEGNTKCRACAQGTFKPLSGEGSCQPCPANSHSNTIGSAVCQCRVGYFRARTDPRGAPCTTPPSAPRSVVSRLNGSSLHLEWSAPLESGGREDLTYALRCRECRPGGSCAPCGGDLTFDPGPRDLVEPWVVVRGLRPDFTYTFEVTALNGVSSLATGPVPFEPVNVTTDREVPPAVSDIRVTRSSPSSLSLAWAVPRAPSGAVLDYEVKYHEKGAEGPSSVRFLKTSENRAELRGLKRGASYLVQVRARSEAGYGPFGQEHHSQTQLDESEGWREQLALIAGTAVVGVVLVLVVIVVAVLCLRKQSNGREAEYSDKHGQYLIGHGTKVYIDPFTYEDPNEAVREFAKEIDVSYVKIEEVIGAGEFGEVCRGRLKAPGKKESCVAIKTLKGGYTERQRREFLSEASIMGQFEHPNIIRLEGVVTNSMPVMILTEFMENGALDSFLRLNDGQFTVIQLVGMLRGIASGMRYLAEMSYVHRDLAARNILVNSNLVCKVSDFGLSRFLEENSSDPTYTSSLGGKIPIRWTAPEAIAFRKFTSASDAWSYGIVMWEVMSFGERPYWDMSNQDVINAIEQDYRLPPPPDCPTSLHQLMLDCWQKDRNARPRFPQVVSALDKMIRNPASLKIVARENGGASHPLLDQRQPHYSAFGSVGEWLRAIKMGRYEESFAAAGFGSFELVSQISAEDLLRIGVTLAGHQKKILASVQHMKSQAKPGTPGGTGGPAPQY
# Protocol: as §1
# CaMKIIα(h) = target: T8, CaMKIIα(h) (Homo sapiens, UniProt Q9UQM7)
# T8 construct: gene CAMK2A
# Protocol: as §1
# KDR(h) = KDR(h) (Homo sapiens, UniProt P35968)
# Protocol: as §1
# TrkA(h) = target: T9, TrkA(h) (Homo sapiens, UniProt P04629)
# T9 construct: gene NTRK1
# Protocol: as §1
# PAK2(h) = PAK2(h) (Homo sapiens, UniProt Q13177)
# Protocol: as §1
# PDK1(h) = target: T10, PDK1(h) (Homo sapiens, UniProt O15530)
# T10 construct: gene PDPK1
# Protocol: as §1
# Lck(h) = Lck(h) (Homo sapiens, UniProt P06239)
# Protocol: as §1
# JAK3(h) = JAK3(h) (Homo sapiens, UniProt P52333)
# Protocol: as §1
# PKBα(h) = target: T11, PKBα(h) (Homo sapiens, UniProt P31749)
# T11 construct: gene AKT1
# Protocol: as §1
# ROCK-I(h) = target: T12, ROCK-I(h) (Homo sapiens, UniProt Q13464)
# T12 construct: gene ROCK1
# Protocol: as §1
# NEK2(h) = NEK2(h) (Homo sapiens, UniProt P51955)
# Protocol: as §1
# IRAK4(h) = IRAK4(h) (Homo sapiens, UniProt Q9NWZ3)
# Sequence of IRAK4(h) (Q9NWZ3 whole entry): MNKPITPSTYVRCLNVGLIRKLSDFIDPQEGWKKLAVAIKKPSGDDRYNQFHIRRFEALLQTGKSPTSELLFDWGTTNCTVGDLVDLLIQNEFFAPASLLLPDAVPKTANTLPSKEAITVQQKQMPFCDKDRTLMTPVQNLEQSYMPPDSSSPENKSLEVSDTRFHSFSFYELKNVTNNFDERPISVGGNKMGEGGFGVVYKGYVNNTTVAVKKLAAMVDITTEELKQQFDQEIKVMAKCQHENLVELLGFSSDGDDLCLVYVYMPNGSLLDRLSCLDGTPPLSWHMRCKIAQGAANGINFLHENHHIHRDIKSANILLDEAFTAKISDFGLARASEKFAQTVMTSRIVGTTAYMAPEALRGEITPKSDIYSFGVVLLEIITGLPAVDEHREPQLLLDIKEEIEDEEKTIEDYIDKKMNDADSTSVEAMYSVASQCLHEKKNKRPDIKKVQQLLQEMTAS
# Protocol: as §1
# CDK2/cyclinA(h) = CDK2/cyclinA(h) (Homo sapiens, UniProt P24941)
# Protocol: as §1
# PKA(h) = target: T13, PKA(h) (Homo sapiens, UniProt P17612)
# T13 construct: gene PRKACA
# Protocol: as §1
# EGFR(h) = EGFR(h) (Homo sapiens, UniProt P00533)
# Protocol: as §1
compound,measurement,setting,value
Cc1ncsc1-c1ccc([C@H](C)NC(=O)[C@@H]2C[C@@H](O)CN2C(=O)[C@@H](NC(=O)CNC(=O)c2ccc(F)c(-c3ccc(N4C[C@@H](C)N(C)[C@@H](C)C4)c(NC(=O)c4c[nH]c(=O)cc4C(F)(F)F)c3)c2)C(C)(C)C)cc1 [MS67],remaining activity at 1 µM,PKCβII(h),112%
same,remaining activity at 1 µM,FGFR3(h),104%
same,remaining activity at 1 µM,EphA2(h),80%
same,remaining activity at 1 µM,CDK1/cyclinB(h),94%
same,remaining activity at 1 µM,c-RAF(h),87%
same,remaining activity at 1 µM,cSRC(h),96%
same,remaining activity at 1 µM,GSK3β(h),110%
same,remaining activity at 1 µM,IR(h),87%
same,remaining activity at 1 µM,Pim-2(h),99%
same,remaining activity at 1 µM,SIK(h),84%
same,remaining activity at 1 µM,FGFR2(h),84%
same,remaining activity at 1 µM,EphB4(h),150%
same,remaining activity at 1 µM,CaMKIIα(h),92%
same,remaining activity at 1 µM,KDR(h),110%
same,remaining activity at 1 µM,TrkA(h),94%
same,remaining activity at 1 µM,PAK2(h),89%
same,remaining activity at 1 µM,PDK1(h),110%
same,remaining activity at 1 µM,Lck(h),97%
same,remaining activity at 1 µM,JAK3(h),100%
same,remaining activity at 1 µM,PKBα(h),93%
same,remaining activity at 1 µM,ROCK-I(h),109%
same,remaining activity at 1 µM,NEK2(h),111%
same,remaining activity at 1 µM,IRAK4(h),109%
same,remaining activity at 1 µM,CDK2/cyclinA(h),91%
same,remaining activity at 1 µM,PKA(h),107%
same,remaining activity at 1 µM,EGFR(h),101%
